Test results published in patent US12435061B2 (priority 2020, dated 2025).
Structures can show the parent of a compound that is named as a salt. Where two headings read alike, the source gives them in different places.

Molecular target: hTRPV3 (Homo sapiens (Human), UniProt Q8NET8)
Assay: Whole-cell patch clamp, hTRPV3 Phase 1 / Phase 2 currents
Assay type: cell-based
How it was run: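 Whole-cell recordings on induced TRPV3 cells replated on coverslips, held at −40 mV with 400 ms ramps from −120 to +100 mV every 5 s; currents read at −80 and +80 mV. Ringer's external solution; current activated by heating to ≥28 °C or 20 μM 2-APB.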

[1] = Phase 1 current, human TRPV3, read-out: hTRPV3 (nM) Phase 1
[2] = Phase 1 current, inward, whole-cell patch clamp, read-out: hTRPV3 Patch P1 Inwd
[3] = Phase 1 current, read-out: hTRPV3 (nM) (Phase 1)
[4] = Phase 2 current, inward, whole-cell patch clamp, read-out: hTRPV3 Patch P2 Inwd
[5] = Phase 2 current, read-out: hTRPV3 (nM) (Phase 2)

Sequence of hTRPV3 (Q8NET8 whole entry): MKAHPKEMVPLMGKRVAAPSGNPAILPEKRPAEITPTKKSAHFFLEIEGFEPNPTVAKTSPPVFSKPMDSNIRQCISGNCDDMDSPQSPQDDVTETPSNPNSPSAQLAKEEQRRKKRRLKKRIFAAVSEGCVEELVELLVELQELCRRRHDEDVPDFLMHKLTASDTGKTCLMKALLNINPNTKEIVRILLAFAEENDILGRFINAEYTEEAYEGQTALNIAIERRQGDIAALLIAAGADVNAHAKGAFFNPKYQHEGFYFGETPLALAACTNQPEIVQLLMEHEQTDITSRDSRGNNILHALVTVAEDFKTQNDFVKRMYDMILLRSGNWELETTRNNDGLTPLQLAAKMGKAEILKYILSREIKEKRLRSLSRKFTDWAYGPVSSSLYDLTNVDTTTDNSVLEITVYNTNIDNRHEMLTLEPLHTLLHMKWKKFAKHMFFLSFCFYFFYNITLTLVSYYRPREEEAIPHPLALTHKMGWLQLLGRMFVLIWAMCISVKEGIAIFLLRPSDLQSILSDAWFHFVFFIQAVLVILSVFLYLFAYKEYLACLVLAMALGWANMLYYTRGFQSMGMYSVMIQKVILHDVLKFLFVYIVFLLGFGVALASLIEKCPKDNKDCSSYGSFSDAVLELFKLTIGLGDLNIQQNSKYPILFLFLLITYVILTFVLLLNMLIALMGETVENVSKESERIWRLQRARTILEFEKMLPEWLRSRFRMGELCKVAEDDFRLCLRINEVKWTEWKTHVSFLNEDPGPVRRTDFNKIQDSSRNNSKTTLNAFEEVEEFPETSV

| Molecule | IC50 [1] [nM] | IC50 [2] [nM] | IC50 [3] [nM] | IC50 [4] [nM] | IC50 [5] [nM] | hTRPV3 (nM) (Phase 1) (Phase 1 current) | hTRPV3 (nM) (Phase 2) (Phase 2 current) |
| --- | --- | --- | --- | --- | --- | --- | --- |
| CC(C)c1ccccc1Oc1ccc(C2CC(=O)N(Cc3ccc(Cl)cn3)C2)c(C(N)=O)c1 (stereo not shown) [Compound 2-102, 2-(1-((5-chloropyridin-2-yl)methyl)-5-oxopyrrolidin-3-yl)-5-(2-isopropylphenoxy)benzamide] | ~2150 | > 1000 |  |  |  |  |  |
| OCc1cc(C2CCOCC2)ccc1N1CC[C@H](Oc2ccc(C(F)(F)F)cn2)C1 [Compound 1-276, (S)-(5-(tetrahydro-2H-pyran-4-yl)-2-(3-(5-(trifluoromethyl)pyridin-2-yloxy)pyrrolidin-1-yl)phenyl)methanol] |  | > 1000 | > 3200 |  |  |  |  |
| (3-(4-(4-chloro-3-ethylpyridin-2-yloxy)-2-(hydroxymethyl)phenyl)pyrrolidin-1-yl)(5-fluoropyridin-2-yl)methanone [Compound 2-43] | > 3200 | > 1000 |  |  |  |  |  |
| COCc1ccc(C(O)c2ccc(N3CC[C@H](Oc4ncccc4Cl)C3)c(CO)c2)cc1 (stereo partly drawn) [Compound 1-290, (4-((S)-3-(3-chloropyridin-2-yloxy)pyrrolidin-1-yl)-3-(hydroxymethyl)phenyl)(4-(methoxymethyl)phenyl)methanol] |  | > 1000 | > 3200 | > 1000 | > 3200 |  |  |
| Cc1ccc(O[C@H]2CCN(c3ccc(Oc4ccccc4)nc3CO)C2)nc1 [Compound 1-211] |  | 100 to 1000 | 931 | 100 to 1000 | 936 |  |  |
| Cc1cnc(C(=O)N2CCC(c3ccc(-c4ccccc4C4CC4)cc3CO)C2)cn1 (stereo not shown) [Compound 2-106, (3-(2′-cyclopropyl-3-(hydroxymethyl)biphenyl-4-yl)pyrrolidin-1-yl)(5-methylpyrazin-2-yl)methanone] | 67 | 10 to 100 |  |  |  |  |  |
| NC(=O)c1cc(-c2ccncc2)ccc1N1CC[C@@H](Oc2ncccc2Cl)C1 [Compound 1-82, (R)-2-(3-(3-chloropyridin-2-yloxy)pyrrolidin-1-yl)-5-(pyridin-4-yl)benzamide hydrochloride] |  | > 1000 | 3600 | > 1000 | 1930 |  |  |
| COCc1ccccc1Oc1ccc(N2CC[C@H](Oc3ccc(F)cn3)C2)c(CCO)c1 [Compound 1-341, (S)-2-(2-(3-(5-fluoropyridin-2-yloxy)pyrrolidin-1-yl)-5-(2-(methoxymethyl)phenoxy)phenyl)ethanol] |  | 100 to 1000 | 877 | 100 to 1000 | 748 |  |  |
| N#Cc1nc(-c2ccccc2)ccc1N1CC[C@@H](Oc2ccc(C(F)(F)F)cn2)C1 [Compound 1-97] |  |  |  | > 1000 | 2930 |  |  |
| NC(=O)c1cc(-c2ccccc2)ccc1N1CC[C@H](Nc2ncccc2Cl)C1 [Compound 1-373, (S)-4-(3-(3-chloropyridin-2-ylamino)pyrrolidin-1-yl)biphenyl-3-carboxamide] |  |  |  | 100 to 1000 | 669 |  |  |
| CCc1ccccc1C(=O)c1ccc(N2CC[C@H](Nc3ncccc3Cl)C2)c(CCO)c1 [Compound 1-387, (S)-(4-(3-(3-chloropyridin-2-ylamino)pyrrolidin-1-yl)-3-(2-hydroxyethyl)phenyl)(2-ethylphenyl)methanone] |  | > 1000 | 1630 |  |  |  |  |
| NC(=O)c1cc(-c2ccccc2)cnc1N1CC[C@@H](Oc2ccc(C(F)(F)F)cn2)C1 [Compound 1-92, (R)-5-phenyl-2-(3-(5-(trifluoromethyl)pyridin-2-yloxy)pyrrolidin-1-yl)nicotinamide] |  |  |  |  |  | Incomplete Block (Phase 1) Incomplete Block (Phase 2) | Incomplete Block (Phase 1) Incomplete Block (Phase 2) |
| O=C(c1ncccc1Cl)N1CCC(c2ccc(C(O)c3ccccc3F)cc2CO)C1 (stereo not shown) [Compound 2-5, (3-chloropyridin-2-yl)(3-(4-((2-fluorophenyl)(hydroxy)methyl)-2-(hydroxymethyl)phenyl)pyrrolidin-1-yl)methanone] | > 3200 | > 1000 |  |  |  |  |  |
